Experimental data from patent publication US4551273A, “Analgesic peptide and process for the preparation thereof” (Eisai Co., Ltd., priority 1983, dated 1985).

Experiments:
[1] = system: guinea pig longitudinal muscle of ileum; assay: Assay with guinea pig longitudinal muscle of ileum (inhibition of electrically stimulated contraction); assay type: tissue-based
Experimental: (A) Assay with guinea pig longitudinal muscle of ileum
This assay was carried out according to the method reported by H. W. Kosterlitz et al. A mature guinea pig was sacrificed by cutting its jugular and subjected to an abdominal operation to take out its ileum as a piece of 40 to 50 cm in length from a region 15 to 20 cm apart from the ileocecal region. Then it was immediately introduced into Ringer's solution and cut into 10 cm portions. The longitudinal muscle was peeled off from each piece by using a scalpel and an applicator, wound with a string and suspended in an isothermal glass cell of 6 ml in volume. Subsequently it was stimulated electrically (0.1 Hz, 0.5 ms, 80-90 V) with platinum electrodes fitted at the upper and lower sides of the cell to record the resulting contractions through a transducer.
H. W. Kosterlitz, A. A. Waterfield: Annu. Rev. Pharmacol., 15, 29 (1975).

mouse vas deferens = assay: Assay with mouse vas deferens (inhibition of electrically stimulated contraction); design: species or system isolated tissue
Experimental: (B) Assay with mouse vas deferens
This assay was carried out according to the method reported by Hughes et al. A mature male mouse was decapitated and phlebotomized. Then it was immediately subjected to an abdominal operation to take out its right and left vas deferens. Sperm clogged in the ducts was forced out with a pincette in Ringer's solution and both ends of the two ducts were united with a string to form a ring. Then it was stimulated electrically (0.1 Hz, 1 ms, 90 V) in the same manner as described in (A).
Hughes H. W., Kosterlitz H. W., Leslie F. M.: Br. J. Pharmacol., 53, 371 (1975).

[2] = system: biting response induced by pinching the mouse tail; assay: Tail pinch assay; assay type: in vivo; conditions: intraventricular administration
Experimental: (§1) The following two methods (A) and (B) were employed to examine the analgesic effects of the sample resulting from intravenous or intraventricular administration.
(§2) The sample and control were injected to the tail vein in the case of intravenous administration and to the side cerebral ventricle in the case of intraventricular administration according to a method reported by Haley and McCormick(1).
Response time had been previously determined by a pressure stimulation to select the mice which had responded within 3 sec for the experiment. According to a method reported by Takagi et al.(3), the degree of pain was scored in the following three stages depending on the response time; 0 (shorter than four sec), 1 (four to eight sec), 2 (longer than eight sec). The analgesic effect was calculated by the following equation: [formula]

[3] = system: writhing syndrome in ddY male mouse; assay: Acetic acid writhing assay; assay type: in vivo; conditions: for ED50, Method (A), intravenous / ED50, Method (A), intraventricular: mouse; for ED50, Method (A), intravenous: intravenous (tail vein) administration, acetic acid 10 min after sample; for ED50, Method (A), intraventricular: intraventricular administration, acetic acid 5 min after sample
Experimental: as §1, §2
(A) Acetic acid writhing assay
0.1 ml/10 g of a 0.7% solution of acetic acid was administered to a ddY male mouse of 20 to 26 g in body weight by an intraabdominal injection to examine the inhibiting effect on writhing syndrome which was mainly observed as a stretching of the hind legs as an indication of the analgesic effect. Acetic acid was administered intraabdominally five min after the intraventricular administration and 10 min after the intravenous administration of the sample. Then the resulting writhing syndromes were counted for 15 min.

[4] = administered intraventricularly; cited from earlier work
[5] = peptide purified from pig duodenum; cited from earlier work
kappa-receptor = kappa-receptor (Homo sapiens, UniProt P41145); conditions: subclass of opiate receptor; different from the μ-receptor; cited from earlier work
Chain of kappa-receptor (P41145 whole entry): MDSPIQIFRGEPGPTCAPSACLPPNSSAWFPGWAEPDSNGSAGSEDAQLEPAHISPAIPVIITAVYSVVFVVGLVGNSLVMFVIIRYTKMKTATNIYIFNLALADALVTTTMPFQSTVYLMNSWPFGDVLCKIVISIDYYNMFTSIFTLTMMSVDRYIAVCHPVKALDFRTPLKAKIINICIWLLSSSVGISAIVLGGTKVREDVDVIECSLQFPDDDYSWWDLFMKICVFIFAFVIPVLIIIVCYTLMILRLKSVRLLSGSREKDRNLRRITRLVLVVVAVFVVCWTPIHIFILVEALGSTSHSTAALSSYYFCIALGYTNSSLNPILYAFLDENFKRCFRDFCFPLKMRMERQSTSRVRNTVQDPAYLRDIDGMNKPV

Compound | IC50 ([1]; concentration required to decrease electrically stimulated contraction to 50%, guinea pig ileum longitudinal muscle, read-out: IC50, Method (A)) [nM] | inhibition of contraction, fold as highly as morphine ([1]; guinea pig longitudinal muscle of ileum, relative to morphine) | IC50 (mouse vas deferens; concentration required to decrease electrically stimulated contraction to 50%, read-out: IC50, Method (B)) [nM] | inhibition of contraction, fold as highly as morphine (mouse vas deferens; relative to morphine) | ED50, Method (B), intraventricular [2] [nmol/head] | analgesic effect compared with morphine on a molar basis ([3]; intravenous administration) | ED50, Method (A), intravenous [3] [nmol/head] | ED50, Method (A), intraventricular [3] [nmol/head] | analgesic effect [4] | morphine-like activity relative to morphine [5] | receptor selectivity (kappa-receptor)
CC[C@@H](C)[C@@H](NC(=O)[C@H](CCCNC(=N)N)NC(=O)[C@H](CCCNC(=N)N)NC(=O)[C@H](CC(C)C)NC(=O)[C@H](Cc1ccccc1)NC(=O)CNC(=O)CNC(=O)[C@H](Cc1ccc(O)cc1)NC)C(=O)N[C@@H](CCCNC(=N)N)C(=O)N1CCC[C@H]1C(=O)N[C@@H](CCCCN)C(=O)N[C@H](CC(C)C)C(=O)N[C@@H](CCCCN)C(=O)N[C@@H](Cc1c[nH]c2ccccc12)C(N)=O [Compound of the present invention, N-Me-Tyr-Gly-Gly-Phe-Leu-Arg-Arg-D.Ile-Arg-Pro-Lys-D.Leu-Lys-Trp-NH2] | 0.35 ± 0.2 | approximately 270 fold | 1.1 ± 0.4 | approximately 970 fold | 0.017 | higher than that of morphine | 3.4 | 0.017 | – | – | –
CN1CC[C@]23c4c5ccc(O)c4O[C@H]2[C@@H](O)C=C[C@H]3[C@H]1C5 [Morphine, reference compound] | – | – | – | – | 0.24 | – | 32 | 0.63 | – | – | –
Tyr-Gly-Gly-Phe-Leu-Arg-Arg-Ile-Arg-Pro-Lys-Leu-Lys-Trp-Asp-Asp-Gln (YGGFLRRIRPKLKWDDQ; printed: Tyr-Gly-Gly-Phe-Leu-Arg-Arg-Ile-Arg-Pro-Lys-Leu-Lys-Trp-Asp-Asp-Gln) [prototype peptide, opioid peptide from pig duodenum, found earlier by some of the inventors; called prototype peptide in b11] | – | – | – | – | – | – | – | – | high analgesic effect | several hundred times as high as morphine | combined selectively with a kappa-receptor
